In data set [1] the target is T1, Broad substrate specificity ATP-binding cassette transporter ABCG2 (Homo sapiens, UniProt Q9UNQ0).
T1 sequence (Q9UNQ0 whole entry): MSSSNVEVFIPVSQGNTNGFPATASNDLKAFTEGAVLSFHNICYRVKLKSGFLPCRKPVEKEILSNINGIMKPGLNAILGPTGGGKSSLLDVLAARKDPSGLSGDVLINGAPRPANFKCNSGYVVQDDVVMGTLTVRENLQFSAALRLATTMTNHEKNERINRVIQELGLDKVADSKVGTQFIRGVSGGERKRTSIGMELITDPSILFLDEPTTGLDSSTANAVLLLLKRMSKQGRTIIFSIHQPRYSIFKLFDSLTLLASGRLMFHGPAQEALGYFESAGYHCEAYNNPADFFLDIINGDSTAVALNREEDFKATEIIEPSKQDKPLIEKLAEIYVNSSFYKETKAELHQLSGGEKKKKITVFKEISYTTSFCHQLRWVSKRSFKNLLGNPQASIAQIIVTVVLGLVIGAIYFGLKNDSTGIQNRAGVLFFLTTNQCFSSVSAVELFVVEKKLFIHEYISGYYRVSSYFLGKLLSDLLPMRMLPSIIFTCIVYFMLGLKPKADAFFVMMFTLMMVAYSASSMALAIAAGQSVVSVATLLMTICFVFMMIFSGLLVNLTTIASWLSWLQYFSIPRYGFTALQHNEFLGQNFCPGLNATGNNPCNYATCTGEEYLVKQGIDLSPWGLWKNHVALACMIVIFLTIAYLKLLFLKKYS
The data set is described as follows: TP_TRANSPORTER: Transepithelial Transport (basal to apical) in OATP1B1/BCRP double transfected MDCKII cells. The format is functional, cell-based. As to conditions: dog, mdck-ii.

Data set [2] concerns the target Canalicular multispecific organic anion transporter 1/Solute carrier organic anion transporter family member 1B1 (Homo sapiens, UniProt Q92887+Q9Y6L6). The data set is described as follows: TP_TRANSPORTER: Transepithelial Transport (basal to apical) in OATP1B1/MRP2 double transfected MDCKII cells. The format is functional, cell-based. As to conditions: dog, mdck-ii.

Consider three molecules from ChEMBL document CHEMBL2074035, “Identification of the hepatic efflux transporters of organic anions using double-transfected Madin-Darby canine kidney II cells expressing human organic anion-transporting polypeptide 1B1 (OATP1B1)/multidrug resistance-associated protein 2, OATP1B1/multidrug resistance 1, and OATP1B1/breast cancer …” (J Pharmacol Exp Ther, 2005).

Consider `C[C@]12CC[C@@H]3c4ccc(O)cc4CC[C@H]3[C@@H]1CC[C@@H]2O[C@@H]1O[C@H](C(=O)O)[C@@H](O)[C@H](O)[C@H]1O` [ESTRADIOL 17B GLUCURONIDE], for which the Activity result in data set [1] and in data set [2] was “substrate [(+)]” throughout.

With `C[C@]12CC[C@@H]3c4ccc(OS(=O)(=O)O)cc4CC[C@H]3[C@@H]1CCC2=O` [ESTRONE SULFURIC ACID], the Activity entry in data set [1] and in data set [2] was “substrate [(+)]” each time.

With `CC[C@H](C)C(=O)O[C@H]1C[C@H](O)C=C2C=C[C@H](C)[C@H](CC[C@@H](O)C[C@@H](O)CC(=O)O)[C@H]21` [PRAVASTATIN], the Activity result in data set [1] and in data set [2] was “substrate [(+)]” throughout.
